Source: ChEMBL document CHEMBL1909046, “DrugMatrix in vitro pharmacology data”

Columns and labels:
Cytochrome P450 2D6 = Cytochrome P450 2D6 (Homo sapiens, UniProt P10635); conditions: bti-tn-5b1-4; further: in other assays of this panel Not Active means under 50% inhibition at 10 µM
Substance-K receptor = target: T1, Substance-K receptor (Homo sapiens, UniProt P21452); type: cell membranes, CHO, Membrane; further: in other assays of this panel Not Active means under 50% inhibition at 10 µM
T1 sequence (P21452 whole entry): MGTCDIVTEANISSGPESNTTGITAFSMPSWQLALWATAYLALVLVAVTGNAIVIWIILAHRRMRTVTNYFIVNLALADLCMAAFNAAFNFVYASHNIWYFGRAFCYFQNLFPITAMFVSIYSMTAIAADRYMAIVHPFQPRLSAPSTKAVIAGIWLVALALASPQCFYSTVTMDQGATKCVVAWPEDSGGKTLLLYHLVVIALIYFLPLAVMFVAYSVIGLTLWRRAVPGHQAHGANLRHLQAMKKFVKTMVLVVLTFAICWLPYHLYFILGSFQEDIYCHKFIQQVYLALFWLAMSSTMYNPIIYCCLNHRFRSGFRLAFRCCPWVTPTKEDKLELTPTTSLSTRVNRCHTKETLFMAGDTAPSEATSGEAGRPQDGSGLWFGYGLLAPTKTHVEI

D(3) dopamine receptor = D(3) dopamine receptor (Homo sapiens, UniProt P35462); assay: DRUGMATRIX: Dopamine D3 radioligand binding (ligand: [3H] Spiperone); type: cell membranes, CHO, Membrane
Chain of D(3) dopamine receptor (P35462 whole entry): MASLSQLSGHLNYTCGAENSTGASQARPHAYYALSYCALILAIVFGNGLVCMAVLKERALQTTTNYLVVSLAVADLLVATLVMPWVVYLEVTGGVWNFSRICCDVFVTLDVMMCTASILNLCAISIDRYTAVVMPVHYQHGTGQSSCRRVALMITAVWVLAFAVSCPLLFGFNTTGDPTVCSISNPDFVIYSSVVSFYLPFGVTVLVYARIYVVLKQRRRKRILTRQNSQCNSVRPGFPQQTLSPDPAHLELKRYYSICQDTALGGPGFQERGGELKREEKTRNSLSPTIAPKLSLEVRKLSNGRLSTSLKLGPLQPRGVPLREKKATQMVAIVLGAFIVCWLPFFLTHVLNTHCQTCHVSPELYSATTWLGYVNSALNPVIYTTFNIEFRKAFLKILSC

Cytochrome P450 2A6 = target: T2, Cytochrome P450 2A6 (Homo sapiens, UniProt P11509); conditions: bti-tn-5b1-4; further: in other assays of this panel Not Active means under 50% inhibition at 10 µM
T2 sequence (P11509 whole entry): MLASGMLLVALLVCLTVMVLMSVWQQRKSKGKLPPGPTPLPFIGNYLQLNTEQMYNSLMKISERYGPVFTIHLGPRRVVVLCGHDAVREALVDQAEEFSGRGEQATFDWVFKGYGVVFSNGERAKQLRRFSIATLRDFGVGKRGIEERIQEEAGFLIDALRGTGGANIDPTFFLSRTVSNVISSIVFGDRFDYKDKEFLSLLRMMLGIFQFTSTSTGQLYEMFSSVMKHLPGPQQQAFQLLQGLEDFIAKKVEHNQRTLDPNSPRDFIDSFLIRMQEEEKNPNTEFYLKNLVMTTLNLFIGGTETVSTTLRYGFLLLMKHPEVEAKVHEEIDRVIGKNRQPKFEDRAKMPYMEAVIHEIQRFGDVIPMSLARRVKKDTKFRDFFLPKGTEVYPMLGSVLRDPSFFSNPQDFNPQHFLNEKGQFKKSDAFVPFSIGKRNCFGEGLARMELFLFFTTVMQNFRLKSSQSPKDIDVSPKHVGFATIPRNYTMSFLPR

[1] = target: T3, Cysteinyl leukotriene receptor 1 (Homo sapiens, UniProt Q9Y271); type: cell membranes, Membrane; conditions: cho-k1; further: in other assays of this panel Not Active means under 50% inhibition at 10 µM
T3 sequence (Q9Y271 whole entry): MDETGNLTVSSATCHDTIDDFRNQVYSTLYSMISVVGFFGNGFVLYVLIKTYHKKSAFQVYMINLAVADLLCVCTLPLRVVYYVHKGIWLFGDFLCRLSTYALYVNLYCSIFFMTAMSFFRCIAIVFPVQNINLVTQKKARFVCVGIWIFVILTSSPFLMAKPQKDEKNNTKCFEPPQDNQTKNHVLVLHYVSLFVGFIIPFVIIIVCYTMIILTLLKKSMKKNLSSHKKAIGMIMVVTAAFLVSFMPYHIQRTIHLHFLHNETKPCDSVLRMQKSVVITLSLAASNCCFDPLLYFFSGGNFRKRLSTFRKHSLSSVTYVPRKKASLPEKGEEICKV

[2] = DRUGMATRIX: Purinergic P2X radioligand binding (ligand: [3H] alpha, beta-Methylene-ATP); type: cell membranes, Oryctolagus cuniculus, New Zealand albino, Urinary bladder, Membrane; conditions: Not Active = under 50% inhibition at 10 µM
D(1A) dopamine receptor = D(1A) dopamine receptor (Homo sapiens, UniProt P21728); assay: DRUGMATRIX: Dopamine D1 radioligand binding (ligand: [3H] SCH-23390); type: cell membranes, CHO, Membrane; conditions: cho; Not Active = under 50% inhibition at 10 µM
Chain of D(1A) dopamine receptor (P21728 whole entry): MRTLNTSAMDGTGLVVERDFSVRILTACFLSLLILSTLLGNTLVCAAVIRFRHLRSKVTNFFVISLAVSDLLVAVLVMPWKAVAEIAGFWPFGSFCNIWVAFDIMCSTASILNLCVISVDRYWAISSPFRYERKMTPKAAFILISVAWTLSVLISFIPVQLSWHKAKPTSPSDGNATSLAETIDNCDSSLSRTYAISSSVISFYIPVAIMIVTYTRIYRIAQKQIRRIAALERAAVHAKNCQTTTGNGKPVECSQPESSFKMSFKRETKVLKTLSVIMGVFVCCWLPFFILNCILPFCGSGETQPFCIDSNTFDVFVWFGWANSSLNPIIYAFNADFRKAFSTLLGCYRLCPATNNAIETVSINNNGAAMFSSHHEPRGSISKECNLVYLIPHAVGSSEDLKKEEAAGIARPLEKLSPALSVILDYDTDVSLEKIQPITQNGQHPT

Chain of Cytochrome P450 2D6 (P10635 whole entry): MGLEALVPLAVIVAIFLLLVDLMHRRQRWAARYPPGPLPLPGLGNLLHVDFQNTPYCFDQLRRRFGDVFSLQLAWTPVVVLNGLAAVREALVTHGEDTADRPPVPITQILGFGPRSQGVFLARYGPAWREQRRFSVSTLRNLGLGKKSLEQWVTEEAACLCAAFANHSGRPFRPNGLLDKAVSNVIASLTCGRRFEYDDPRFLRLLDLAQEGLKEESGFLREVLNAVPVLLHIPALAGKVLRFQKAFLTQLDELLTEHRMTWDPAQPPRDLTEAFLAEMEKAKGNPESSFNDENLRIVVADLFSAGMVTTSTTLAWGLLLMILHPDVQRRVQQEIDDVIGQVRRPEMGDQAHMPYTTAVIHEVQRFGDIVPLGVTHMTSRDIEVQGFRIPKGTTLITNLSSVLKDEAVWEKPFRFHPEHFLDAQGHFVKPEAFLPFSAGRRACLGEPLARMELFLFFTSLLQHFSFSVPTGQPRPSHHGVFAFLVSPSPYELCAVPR

Compound	IC50 (Cytochrome P450 2D6)	Ki (Cytochrome P450 2D6)	IC50 (Substance-K receptor; cho)	IC50 (D(3) dopamine receptor; cho)	IC50 (Cytochrome P450 2A6)	Ki (Cytochrome P450 2A6)	IC50 [1]	IC50 [2]	Ki [2]	IC50 (D(1A) dopamine receptor)	IC50 (Substance-K receptor; read-out: IC50) [µM]	Ki (Substance-K receptor; read-out: Ki) [µM]	IC50 (D(3) dopamine receptor; read-out: IC50) [µM]	Ki (D(3) dopamine receptor; read-out: Ki) [µM]	Ki (Substance-K receptor; cho)	Ki (D(3) dopamine receptor; cho)	Ki [1]	Ki (D(1A) dopamine receptor)
CC(c1cc2ccccc2s1)N(O)C(N)=O (configuration not stated) [ZILEUTON]	Not Active	Not Active	Not Active	Not Active	Not Active	Not Active	Not Active	Not Active	Not Active	Not Active	–	–	–	–	–	–	–	–
O=C1Nc2ccc(Cl)cc2C(c2ccccc2Cl)=NC1O (configuration not stated) [LORAZEPAM]	Not Active	Not Active	Not Active	Not Active	Not Active	Not Active	Not Active	Not Active	Not Active	Not Active	–	–	–	–	–	–	–	–
CCN(CC)CCOc1ccc(/C(=C(/Cl)c2ccccc2)c2ccccc2)cc1 [ENCLOMIPHENE]	–	–	–	–	Not Active	Not Active	Not Active	–	–	–	4.52	1.51	–	–	–	–	–	–
CC(C)Cc1ccc([C@@H](C)C(=O)O)cc1 [(R)-IBUPROPHEN]	Not Active	Not Active	Not Active	Not Active	Not Active	Not Active	Not Active	Not Active	Not Active	Not Active	–	–	–	–	–	–	–	–
O=C(Nc1ccc(Br)cc1)c1cc(Br)cc(Br)c1O [TRIBROMSALAN]	Not Active	Not Active	Not Active	Not Active	Not Active	Not Active	Not Active	Not Active	Not Active	Not Active	–	–	–	–	–	–	–	–
CN(C/C=C/C#CC(C)(C)C)Cc1cccc2ccccc12 [TERBINAFINE]	–	–	Not Active	Not Active	Not Active	Not Active	Not Active	Not Active	Not Active	Not Active	–	–	–	–	–	–	–	–
Cn1c(=O)c2nc[nH]c2n(C)c1=O.O [THEOPHYLLINE]	Not Active	Not Active	Not Active	Not Active	Not Active	Not Active	Not Active	Not Active	Not Active	Not Active	–	–	–	–	–	–	–	–
CC(C)NCC(O)c1ccc(NS(C)(=O)=O)cc1 (configuration not stated) [SOTALOL]	Not Active	Not Active	Not Active	Not Active	Not Active	Not Active	Not Active	Not Active	Not Active	Not Active	–	–	–	–	–	–	–	–
CO[C@@H]1[C@@H](OC)[C@H](C)[C@@](O)(CC(=O)O)O[C@H]1[C@H](C)[C@H]1O[C@@]2(CC[C@@](C)([C@H]3CC[C@@](C)([C@@H]4O[C@@H]([C@H]5O[C@](C)(O)[C@H](C)C[C@@H]5C)C[C@@H]4O[C@@H]4C[C@H](OC)[C@@H](OC)[C@H](C)O4)O3)O2)C[C@H](O)[C@H]1C [MADURAMICIN ACID]	–	–	Not Active	–	Not Active	Not Active	Not Active	Not Active	Not Active	–	–	–	0.027	0.00934	–	–	–	–
SODIUM ORTHOVANAD	Not Active	Not Active	Not Active	Not Active	Not Active	Not Active	Not Active	Not Active	Not Active	Not Active	–	–	–	–	Not Active	Not Active	Not Active	Not Active
Cc1cccc(C)c1OCC(C)N (configuration not stated) [MEXILETINE]	Not Active	Not Active	Not Active	Not Active	Not Active	Not Active	Not Active	Not Active	Not Active	Not Active	–	–	–	–	–	–	–	–
CC(C)NCC(O)c1ccc(O)c(O)c1 (configuration not stated) [ISOPROTERENOL]	Not Active	Not Active	Not Active	Not Active	Not Active	Not Active	Not Active	Not Active	Not Active	Not Active	–	–	–	–	–	–	–	–
NC1CCN(c2nc3c(cc2F)c(=O)c(C(=O)O)cn3-c2ccc(F)cc2F)C1 (configuration not stated) [TOSUFLOXACIN]	Not Active	Not Active	Not Active	Not Active	Not Active	Not Active	Not Active	Not Active	Not Active	Not Active	–	–	–	–	–	–	–	–
COc1ccc(CCN(C)CCCC(C#N)(c2ccc(OC)c(OC)c2)C(C)C)cc1OC (configuration not stated)	Not Active	Not Active	Not Active	–	Not Active	Not Active	Not Active	Not Active	Not Active	Not Active	–	–	–	–	–	–	–	–
CN[C@H]1CC[C@@H](c2ccc(Cl)c(Cl)c2)c2ccccc21 [SERTRALINE]	Not Active	Not Active	Not Active	Not Active	Not Active	Not Active	Not Active	–	–	–	–	–	–	–	–	–	–	–
C[C@H]1C[C@@H]2[C@H]([C@@H](O)C[C@@]3(C)[C@H]2CC[C@]3(O)C(=O)CO)[C@@]2(C)C=CC(=O)C=C12 [METHYLPREDNISOLONE]	–	–	Not Active	Not Active	Not Active	Not Active	Not Active	Not Active	Not Active	Not Active	–	–	–	–	–	–	–	–
Fc1ccc(C(c2ccc(F)cc2)N2CCN(C/C=C/c3ccccc3)CC2)cc1 [FLUNARIZINE]	Not Active	Not Active	Not Active	–	Not Active	Not Active	Not Active	–	–	–	–	–	0.097	0.033	–	–	–	–
CN(C)CCOC(c1ccccc1)c1ccccc1 [DIPHENHYDRAMINE]	–	–	Not Active	Not Active	–	–	Not Active	–	–	–	–	–	–	–	–	–	–	–
CCCCNc1ccc(C(=O)OCCN(C)C)cc1 [TETRACAINE]	–	–	Not Active	Not Active	Not Active	Not Active	Not Active	Not Active	Not Active	Not Active	–	–	–	–	–	–	–	–
CCN(CC)CC(=O)Nc1c(C)cccc1C [LIDOCAINE]	–	–	Not Active	Not Active	Not Active	Not Active	Not Active	Not Active	Not Active	Not Active	–	–	–	–	–	–	–	–
CNCCC(Oc1ccc(C(F)(F)F)cc1)c1ccccc1 (configuration not stated) [FLUOXETINE]	–	–	Not Active	Not Active	Not Active	Not Active	Not Active	–	–	–	–	–	–	–	–	–	–	–
Cc1c(C)c2c(c(C)c1O)CCC(C)(CN1CCN(c3cc(N4CCCC4)nc(N4CCCC4)n3)CC1)O2 (configuration not stated)	–	–	Not Active	–	–	–	Not Active	Not Active	Not Active	Not Active	–	–	5.2	1.77	–	–	–	–
Cc1ccc(NC(=O)c2ccc(CN3CCN(C)CC3)cc2)cc1Nc1nccc(-c2cccnc2)n1 [IMATINIB]	Not Active	Not Active	Not Active	Not Active	Not Active	Not Active	Not Active	–	–	–	–	–	–	–	–	–	–	–
Clc1ccc(COC(Cn2ccnc2)c2ccc(Cl)cc2Cl)cc1 (configuration not stated) [ECONAZOLE]	–	–	–	–	Not Active	Not Active	Not Active	–	–	–	6.03	2.01	–	–	–	–	–	–
Clc1ccccc1CN1CCc2sccc2C1 [TICLOPIDINE]	–	–	Not Active	Not Active	Not Active	Not Active	Not Active	Not Active	Not Active	Not Active	–	–	–	–	–	–	–	–
CCN1CCC[C@H]1CNC(=O)c1cc(S(N)(=O)=O)ccc1OC [LEVOSULPIRIDE]	Not Active	Not Active	Not Active	–	Not Active	Not Active	Not Active	Not Active	Not Active	Not Active	–	–	–	–	–	–	–	–
